Measured values: patent publication US20220313819A1, “COMBINATION THERAPY FOR THE TREATMENT OF SOLID AND HEMATOLOGICAL CANCERS” (Arch Oncology, Inc., priority 2019, published 2022)

Legend:
[1] = test system: MM.1S tumors; test: MM.1S multiple myeloma xenograft, combination with bortezomib; format: in vivo, mouse
Excerpt: (§1) MM.1S human multiple myeloma cells (ATCC #CRL-2974, Manassas, Va.) were maintained in RPMI-1640 (Lonza; Walkersville, Md.) supplemented with 10% Fetal Bovine Serum (FBS; Omega Scientific; Tarzana, Calif.) and 1% Penicillin/Streptomycin (Corning, Manassas, Va.) within a 5% CO2 atmosphere. Cultures were expanded in tissue culture flasks.
(§2) Female NSG (NOD-Cg-Prkdc^scidI12rg^tm1Wjl/SzJ) were obtained from Jackson Laboratory (Bar Harbor, Me.) at 5-6 weeks of age. Mice were acclimated prior to handling and housed in microisolator cages (Lab Products, Seaford, Del.) under specific pathogen-free conditions. Mice were fed Teklad Global Diet® 2920x irradiated laboratory animal diet (Envigo, Formerly Harlan; Indianapolis, Ind.) and provided autoclaved water ad libitum. All procedures were carried out under Institutional Animal Care and Use guidelines.
(§3) The mean TS of each group was calculated and reported.
All statistical analyses in the xenograft study were performed with Prism GraphPad® software.

[2] = test system: RPMI-8226 tumors; test: RPMI-8226 multiple myeloma xenograft in NSG mice; format: in vivo, mouse
Excerpt: as §1, with “RPMI-8226” for “MM.1S”, “#CCL-155,” for “#CRL-2974,”
as §2
Female NSG mice were inoculated subcutaneously in the right flank with 0.1 mL of a 30% RPMI/70% Matrigel™ (BD Biosciences; Bedford, Mass.) mixture containing a suspension of 1×10^7 RPMI-8226 tumor cells.
as §3
Differences in Day 48 tumor volumes were confirmed using a one-way ANOVA, unpaired, parametric with the Tukey's Multiple Comparison test with Welch's correction. […]

[3] = test system: SNU-1 tumors; test: SNU-1 gastric carcinoma xenograft in NSG mice; format: in vivo, mouse; settings: antibody 25 mg/kg IP Q7D×5, cisplatin 3 mg/kg Q7D×4
Procedure: Female NSG mice (NOD-Cg-PrkdcscidI12rgtm1Wjl/SzJ, Jackson Laboratories) were inoculated subcutaneously in the right flank with 0.1 mL of a 30% RPMI/70% Matrigel™ (BD Biosciences; Bedford, Mass.) mixture containing a suspension of 5×10^6 SNU-1 gastric carcinoma cells (ATCC). Eight days following inoculation, digital calipers were used to measure width and length diameters of the tumor. Tumor volumes were calculated utilizing the formula: tumor volume (mm^3)=(a×b^2/2) where ‘b’ is the smallest diameter and ‘a’ is the largest diameter. Mice with palpable tumor volumes of 50-100 mm^3 were randomized into 10 mice/group and administered anti-CD47 mAb VLX9hum_06 IgG2, cisplatin, control IgG2, or a combination of anti-CD47 mAb VLX9hum_06 IgG2 with cisplatin. Mice were treated with 25 mg/kg of antibody once a week for 5 weeks (Q7D×5) by intraperitoneal injection (IP) and/or with 3 mg/kg of cisplatin once weekly for 4 weeks (Q7D×4). Tumor volumes and body weights were recorded twice weekly.
Mean tumor growth inhibition (TGI) was calculated utilizing the following formula.
Significant differences in tumor volume were confirmed using a two-way ANOVA, unpaired, parametric with the Tukey's Multiple Comparison test.

[4] = test system: OV90 tumors; test: OV90 ovarian carcinoma xenograft in NSG mice; format: in vivo, mouse; settings: OV90, Day 52; antibody 10 mg/kg IP QD5×6, cisplatin 5 mg/kg, paclitaxel 20 mg/kg
Procedure: Female NSG mice (NOD-Cg-PrkdcscidI12rgtm1Wjl/SzJ, Jackson Laboratories) were inoculated subcutaneously in the right flank with 0.1 mL of a 30% RPMI/70% Matrigel™ (BD Biosciences; Bedford, Mass.) mixture containing a suspension of 5×10^6 OV90 ovarian carcinoma cells (ATCC). Digital calipers were used to measure width and length diameters of the tumor. Tumor volumes were calculated utilizing the formula: tumor volume (mm^3)=(a×b^2/2) where ‘b’ is the smallest diameter and ‘a’ is the largest diameter. Mice with palpable tumor volumes of 50-100 mm^3 were randomized into 10 mice/group. […] Tumor volumes and body weights were recorded twice weekly.

[5] = test system: MM.1S tumors; test: MM.1S xenograft in NOD-SCID mice, combination with lenalidomide or pomalidomide; format: in vivo, mouse; settings: for complete tumor regression: N=9/group; for tumor growth inhibition (TGI): mAb 25 mg/kg IP weekly
Excerpt: MM.1S human multiple myeloma cells (ATCC #CRL-2974, Manassas, Va.) were maintained in RPMI-1640 (Lonza; Walkersville, Md.) supplemented with 10% Fetal Bovine Serum (FBS; Omega Scientific; Tarzana, Calif.) and 1% Penicillin/Streptomycin (Corning, Manassas, Va.) within a 5% CO2 atmosphere. Cultures were expanded in tissue culture flasks. Female NOD-SCID (NOD.CB17-Prkdc^scid/J) mice were obtained from Jackson Laboratory (Bar Harbor, Me.) at 5-6 weeks of age. Mice were acclimated prior to handling and housed in microisolator cages (Lab Products, Seaford, Del.) under specific pathogen-free conditions. Mice were fed Teklad Global Diet® 2920x irradiated laboratory animal diet (Envigo, Formerly Harlan; Indianapolis, Ind.) and provided autoclaved water ad libitum. All procedures were carried out under Institutional Animal Care and Use guidelines.
Female NOD-SCID mice were inoculated subcutaneously in the right flank with 0.1 mL of a 50% RPMI-1640/50% Matrigel™ (BD Biosciences; Bedford, Mass.) mixture containing a suspension of 5×10^6 MM.1S tumor cells. When tumors reached volumes of approximately 50-100 mm^3, mice were randomized. The test articles, human IgG2 (hIgG2), anti-CD47 mAb (VLX9hum_06 IgG2) were administered by intraperitoneal (IP) injection and lenalidomide or pomalidomide (LC Labs, Woburn, Mass.) were administered by oral gavage (PO). hIgG2 (25 mg/kg) or an anti-CD47 mAb VLX9hum_06 IgG2 (25 mg/kg) were administered weekly for 5 weeks, while lenalidomide (25 mg/kg) or pomalidomide (10 mg/kg) were administered on 4 successive days, with 3 days off, weekly for 5 weeks.
Mean tumor growth inhibition (TGI) was calculated at Day 24 (the final day all mice were on study) utilizing the following formula.
All statistical analyses in the xenograft study were performed with Prism GraphPad® software. Differences in Day 24 tumor volumes were confirmed using a two-way ANOVA, unpaired, parametric with the Tukey's Multiple Comparison test with Welch's correction.

[6] = test system: Jurkat T ALL cell line; test: ATP release; format: cell-based, human; settings: mAb 10 μg/ml or mitoxantrone 1 μM, 24 hours
Procedure: Release of ATP from the tumor cell is determined by quantitative bioluminescence assay as described by the manufacturer (Molecular Probes; Catalogue #A22066).
The humanized antibodies (VLX4hum_01 IgG4PE, VLX4hum_07 IgG4PE, VLX8hum_11 IgG4PE, VLX9hum_06 IgG2, VLX9hum_08 IgG2 and VLX9hum_03) as disclosed herein, purified from transient transfections in CHO cells as described above, as well as the control chimeric antibody, were added at a final concentration of 10 μg/ml. As a positive control for ATP release, cells were treated with 1 μM of chemotherapeutic anthracycline mitoxantrone. The cells were incubated at 37° C. for 24 hours, after which the cell-free supernatant was collected and stored at −80° C. After all samples have been collected, 10 μl of each sample was tested by the ATP determination kit as described above. […] Results are presented as means SEM and analyzed for statistical significance using ANOVA in GraphPad Prism 6.

[7] = test system: MM.1S tumors; test: MM.1S multiple myeloma xenograft, combination with daratumumab; format: in vivo, mouse
Procedure: as §1, with “The anti-tumor properties of a humanized anti-CD47 antibody (VLX9hum_06 IgG2) and in combination with anti-CD38 monoclonal antibody daratumumab which reduce tumor burden in a xenograft MM.1S multiple myeloma NSG mouse model were evaluated MM.1S” for “MM.1S”
as §2
Female NSG mice were inoculated subcutaneously in the right flank with 0.1 mL of a 30% RPMI/70% Matrigel™ (BD Biosciences; Bedford, Mass.) mixture containing a suspension of 5×10^6 MM.1S tumor cells. […]
Mean tumor growth inhibition (TGI) was calculated at Day 20 utilizing the following formula. […]

**Q.** With `CC(C)C[C@H](NC(=O)[C@H](Cc1ccccc1)NC(=O)c1cnccn1)B(O)O` [bortezomib] as the compound, how does the median survival [1] read?
**A.** 35 days

**Q.** And the “tumor growth inhibition (TGI)” value ([1]; Day 20, mAb 25 mg/kg IP weekly, bortezomib 0.75 then 0.5 mg/kg IV)?
**A.** 91.8%

**Q.** What about the median survival ([2]; RPMI-8226, 1 mg/kg) of the same compound?
**A.** 78 days

**Q.** And the “tumor growth inhibition (TGI)” value ([2]; RPMI-8226, Day 48, 1 mg/kg IV Day 1, 4, 12)?
**A.** 96%

**Q.** How did the “tumor growth inhibition (TGI)” value [3] turn out when `N.N.[Cl][Pt][Cl]` [cisplatin] was run?
**A.** 39.7%

**Q.** What about the “tumor growth inhibition (TGI)” value [4] of the same compound?
**A.** 53.1%

**Q.** Which results are given for `Nc1cccc2c1CN(C1CCC(=O)NC1=O)C2=O` (centres unmarked) [lenalidomide]?
**A.** complete tumor regression ([5]; FIG. 91A): no tumor regressions; tumor growth inhibition (TGI) ([5]; day 24, FIG. 91A, lenalidomide 25 mg/kg PO): 48%

**Q.** How did the “amount of released ATP” value [6] turn out when `O=C1c2c(O)ccc(O)c2C(=O)c2c(NCCNCCO)ccc(NCCNCCO)c21` [mitoxantrone] was run?
**A.** did not (ns)

**Q.** For `CC(=O)O[C@H]1C(=O)[C@@]2(C)[C@H]([C@H](OC(=O)c3ccccc3)[C@]3(O)C[C@H](OC(=O)[C@H](O)[C@@H](NC(=O)c4ccccc4)c4ccccc4)C(C)=C1C3(C)C)[C@]1(OC(C)=O)CO[C@@H]1C[C@@H]2O` [paclitaxel], which “tumor growth inhibition (TGI)” value [4] is on record?
**A.** 32.1%

**Q.** What does the source list for `Nc1cccc2c1C(=O)N(C1CCC(=O)NC1=O)C2=O` (centres unmarked) [pomalidomide]?
**A.** complete tumor regression ([5]; FIG. 91B): no tumor regressions; tumor growth inhibition (TGI) ([5]; day 24, FIG. 91B, pomalidomide 10 mg/kg PO): 23%

**Q.** Which results are given for “daratumumab: anti-CD38 monoclonal antibody”?
**A.** median survival [7]: 29 days; tumor growth inhibition (TGI) ([7]; Day 20, mAb 25 mg/kg weekly, daratumumab 15 mg/kg twice weekly): 54%
